Assay results published in patent US9278958B2, “Anti-cancer compounds” (KATHOLIEKE UNIVERSITEIT LEUVEN, priority 2012, dated 2016).
Like-named read-outs stand apart in the source and are kept apart here.

Legend:
[1] = test system: Caki-2 kidney carcinoma cells; experiment: Cytostatic assay, Caki-2; type: cell-based; conditions: Homo sapiens, Table 3
Summary of the method: (§1)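 Each cell line grows in the presence of compound for 48 h to 96 h, the duration chosen per line, at 37° C in a humid CO2-regulated incubator. Seeding is 5-7.5×10^4 cells per well, and final counts come from a Coulter counter.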

[2] = test system: PC-3 (UZ) prostate cancer cells; experiment: Cytostatic assay, PC-3 (UZ); type: cell-based; conditions: Table 4
Summary of the method: as §1

[3] = test system: C8166 cells; experiment: Cytostatic assay, C8166; type: cell-based; conditions: Homo sapiens, Table 2
Summary of the method: as §1

[4] = test system: L1210 cells; experiment: Cytostatic assay, L1210; type: cell-based; conditions: Mus musculus, Table 2
Protocol: (§2) To each well of a 96-well microtiter plate were added 5-7.5×10^4 cells and a given amount of the test compound. The cells were allowed to proliferate for 48 h to 96 h (depending on the nature of the cell line) at 37° C. in a humidified CO2-controlled atmosphere. At the end of the incubation period, the cells were counted in a Coulter Counter (Coulter Electronics Ltd, Harpenden Herts, United Kingdom).

[5] = test system: PC3 (rega) prostate cancer cells; experiment: Cytostatic assay, PC3 (rega); type: cell-based; conditions: Table 4
Summary of the method: as §1

[6] = test system: HT29 colorectal carcinoma cells; experiment: Cytostatic assay, HT29; type: cell-based; conditions: Homo sapiens, HT-29; Table 3
Summary of the method: as §1

[7] = test system: HUT-78 cells; experiment: Cytostatic assay, HUT-78; type: cell-based; conditions: Homo sapiens, HuT78; Table 2
Summary of the method: as §1

[8] = test system: U87 glioma cells; experiment: Cytostatic assay, U87; type: cell-based; conditions: Homo sapiens, U-87 MG; Table 3
Summary of the method: as §1

[9] = test system: BAEC aortic endothelial cells; experiment: Cytostatic assay, BAEC; type: cell-based, bovine; conditions: Bos taurus, Table 3
Summary of the method: as §1

[10] = test system: PNT1A (UZ) prostate cells; experiment: Cytostatic assay, PNT1A (UZ); type: cell-based; conditions: Homo sapiens, Table 4
Summary of the method: as §1

[11] = test system: THP-1, human monocytic cells; experiment: Cytostatic assay, THP-1; type: cell-based; conditions: Table 2
Summary of the method: as §1

[12] = test system: PLC/PRF/5 hepatoma cells; experiment: Cytostatic assay, PLC/PRF/5; type: cell-based; conditions: Homo sapiens, Table 4
Summary of the method: as §1

[13] = test system: 293T embryonic kidney cells; experiment: Cytostatic assay, 293T; type: cell-based; conditions: Homo sapiens, HEK-293T; Table 3
Summary of the method: as §1

[14] = test system: MT-2 cells; experiment: Cytostatic assay, MT-2; type: cell-based; conditions: Homo sapiens, MT2; Table 2
Summary of the method: as §1

[15] = test system: HL60, human leukemia cells; experiment: Cytostatic assay, HL-60; type: cell-based; conditions: Table 2
Summary of the method: as §1

[16] = test system: BPH-1 (UZ); experiment: Cytostatic assay, BPH-1 (UZ); type: cell-based; conditions: Homo sapiens, Table 4
Summary of the method: as §1

[17] = test system: Caki-1 kidney carcinoma cells; experiment: Cytostatic assay, Caki-1; type: cell-based; conditions: Homo sapiens, Table 3
Summary of the method: as §1

[18] = test system: MCF-7 mammary carcinoma cells; experiment: Cytostatic assay, MCF-7; type: cell-based; conditions: Homo sapiens, MCF7; Table 3
Summary of the method: as §1

[19] = test system: Raji, human B-lymphoma cells; experiment: Cytostatic assay, Raji; type: cell-based; conditions: Table 2
Summary of the method: as §1

[20] = test system: HeLa cervix carcinoma cells; experiment: Cytostatic assay, HeLa; type: cell-based, human; conditions: Homo sapiens; Table 3; read-out: Cytostatic activity (μM) Hela
Summary of the method: as §1

[21] = test system: Molt4/C8 cells; experiment: Cytostatic assay, Molt4/C8; type: cell-based; conditions: Table 2
Summary of the method: as §1

[22] = test system: LNCaP (UZ) prostate cancer cells; experiment: Cytostatic assay, LNCaP (UZ); type: cell-based; conditions: Homo sapiens, Table 4
Summary of the method: as §1

[23] = test system: DU145 (UZ) prostate cancer cells; experiment: Cytostatic assay, DU145 (UZ); type: cell-based; conditions: Homo sapiens, DU-145; Table 4
Summary of the method: as §1

[24] = test system: OST TK- osteosarcoma cells; experiment: Cytostatic assay, OST TK-; type: cell-based; conditions: Homo sapiens; Table 3
Summary of the method: as §1

[25] = test system: HEL embryonic lung fibroblast cells; experiment: Cytostatic assay, HEL; type: cell-based; conditions: Homo sapiens, Table 3
Summary of the method: as §1

[26] = test system: HepG2C3A hepatoma cells; experiment: Cytostatic assay, HepG2C3A; type: cell-based; conditions: Homo sapiens, HepG2/C3A; Table 4
Summary of the method: as §1

[27] = test system: FM3A mammary carcinoma cells; experiment: Cytostatic assay, FM3A; type: cell-based, murine; conditions: Mus musculus, Table 3
Summary of the method: as §1

[28] = test system: Huh-7 hepatoma cells; experiment: Cytostatic assay, Huh-7; type: cell-based; conditions: Homo sapiens, Table 4
Summary of the method: as §1

[29] = test system: CEM cells; experiment: Cytostatic assay, CEM; type: cell-based; conditions: Homo sapiens, CCRF-CEM
Summary of the method: as §1

[30] = test system: broad variety of tumor cell lines; experiment: Cytostatic assays, summary over the panel of cell lines (Tables 2-4); type: cell-based; conditions: range over the cell lines of Tables 2-4; read-out: IC50 range (antiproliferative activity)
Protocol: as §2

[31] = test system: Sup T1 cells; experiment: Cytostatic assay, Sup T1; type: cell-based; conditions: Homo sapiens, Table 2, read-out: Cytostatic activity (μM) Sup T 1
Summary of the method: as §1

[32] = test system: U937, human monocytic cells; experiment: Cytostatic assay, U937; type: cell-based; conditions: U-937, Table 2
Summary of the method: as §1

[33] = test system: 22Rv1 (UZ) prostate cancer cells; experiment: Cytostatic assay, 22Rv1 (UZ); type: cell-based; conditions: Homo sapiens, Table 4
Summary of the method: as §1

[34] = test system: MT-4 cells; experiment: Cytostatic assay, MT-4; type: cell-based; conditions: Homo sapiens, MT4; Table 2
Summary of the method: as §1

[35] = test system: RNA synthesis in Raji cells; experiment: Antimetabolic activity assay, [5-3H]uridine incorporation (RNA synthesis), Raji; type: cell-based; conditions: Homo sapiens, incorporation into TCA-insoluble material
Protocol: [The procedure below names another cell line; the source lists this cell line under the same test.] (§3) Radiolabeled precursors of DNA synthesis ([^3H-methyl]dThd), RNA synthesis ([5-^3H]Urd), and protein synthesis ([4,5-^3H]leu) were added to 10^5 CEM cell cultures in the 200 μl-wells of a microtiter plate at 1 μCi for each precursor in the presence of varying concentrations of the test compounds (5-fold dilution series). The cells were allowed to proliferate for 20 hrs at 37° C. in a humidified, CO2-controlled atmosphere. At the end of the incubation period, the contents of the wells were brought onto 25-mm glass fiber filters and further processed for measurement of acid-insoluble radioactivity.

[36] = test system: protein synthesis in Raji cells; experiment: Antimetabolic activity assay, [4,5-3H]leucine incorporation (protein synthesis), Raji; type: cell-based; conditions: Homo sapiens, incorporation into TCA-insoluble material
Protocol: [The procedure below names another cell line; the source lists this cell line under the same test.] as §3

[37] = test system: RNA synthesis in CEM cells; experiment: Antimetabolic activity assay, [5-3H]uridine incorporation (RNA synthesis), CEM; type: cell-based; conditions: Homo sapiens, CCRF-CEM, incorporation into TCA-insoluble material
Protocol: as §3

[38] = test system: DNA synthesis in Raji cells; experiment: Antimetabolic activity assay, [CH3-3H]dThd incorporation (DNA synthesis), Raji; type: cell-based; conditions: Homo sapiens, incorporation into TCA-insoluble material
Protocol: [The procedure below names another cell line; the source lists this cell line under the same test.] as §3

[39] = test system: DNA synthesis in CEM cells; experiment: Antimetabolic activity assay, [CH3-3H]dThd incorporation (DNA synthesis), CEM; type: cell-based; conditions: Homo sapiens, CCRF-CEM, incorporation into TCA-insoluble material
Protocol: as §3

[40] = test system: protein synthesis in CEM cells; experiment: Antimetabolic activity assay, [4,5-3H]leucine incorporation (protein synthesis), CEM; type: cell-based; conditions: Homo sapiens, CCRF-CEM, incorporation into TCA-insoluble material
Protocol: as §3

[41] = Table 1a, read-out: IC50 μM (CEM)
[42] = Table 2, read-out: Cytostatic activity (μM) CEM

Row | Compound | IC50 [1] [µM] | IC50 [2] [µM] | IC50 [3] [µM] | IC50 [5] [µM] | IC50 [6] [µM] | IC50 [7] [µM] | IC50 [8] [µM] | IC50 [9] [µM] | IC50 [10] [µM] | IC50 [11] [µM] | IC50 [12] [µM] | IC50 [13] [µM] | IC50 [14] [µM] | IC50 [15] [µM] | IC50 [16] [µM] | IC50 [17] [µM] | IC50 [18] [µM] | IC50 [19] [µM] | IC50 [20] [µM] | IC50 [21] [µM] | also measured
1 | COc1ccc(-c2cc(C#N)c(N)s2)cc1 [TR582, 2-Amino-5-(4-methoxy-phenyl)-thiophene-3-carbonitrile] | ≥ 200 | > 100 | > 200 | 69 ± 21 | > 100 | > 200 | > 100 | > 100 | > 100 | 124 ± 25 | 49 ± 3.5 | > 100 | ≥ 161 | ≥ 135 | > 100 | 19 ± 18 | 117 ± 58 | > 100 | 168 ± 15 | 275 ± 89 | IC50 [4]: 230 ± 65 µM; IC50 [22]: 4.8 ± 3.4 µM; IC50 [23]: > 100 µM; IC50 [24]: 134 ± 69 µM; IC50 [25]: 33 ± 0.71 µM; IC50 [26]: ≥ 100 µM; IC50 [27]: 320 ± 14 µM; IC50 [28]: > 100 µM; IC50 [29, 41]: 233 µM; IC50 [29, 42]: 233 ± 29 µM; IC50 [30]: 24 to 320 µM; IC50 [31]: > 200 µM; IC50 [32]: > 200 µM; IC50 [33]: 34 ± 26 µM; IC50 [34]: 76 ± 35 µM
2 | COC(=O)c1cc(CCc2cc(OC)ccc2OC)sc1N [TR584, 2-Amino-5-[2-(2,5-dimethoxy-phenyl)-ethyl]-thiophene-3-carboxylic acid methyl ester] | 0.93 ± 0.28 | 0.81 ± 0.42 | 1.4 ± 0.76 | 0.36 ± 0.18 | 1.8 ± 0.21 | 2.6 ± 2.1 | 1.8 ± 0.071 | 2 ± 0.28 | 0.77 ± 0.31 | 3.1 ± 0.07 | 1.3 ± 0.21 | 1.9 | 4.2 ± 0.79 | 0.89 ± 0.3 | 1.3 ± 0.071 | 2.5 ± 0.6 | 0.93 ± 0.23 | 2.2 ± 0.28 | 0.83 ± 0.25 | 0.42 ± 0.11 | IC50 [35]: ≥ 100 µM; IC50 [36]: 62 ± 1 µM; IC50 [37]: 2.4 ± 0.2 µM; IC50 [38]: 82 ± 6 µM; IC50 [39]: 7.5 ± 5.5 µM; IC50 [22]: 0.38 ± 0.11 µM; IC50 [23]: 1.6 µM; IC50 [24]: 0.68 ± 0.33 µM; IC50 [25]: 0.87 ± 0.014 µM; IC50 [26]: 4.5 ± 1.7 µM; IC50 [27]: 2.5 ± 0.28 µM; IC50 [28]: 2.2 ± 0.49 µM; IC50 [29, 41]: 1.6 µM; IC50 [29, 42]: 1.6 ± 0.071 µM; IC50 [31]: 0.61 ± 0.26 µM; IC50 [32]: 4.2 ± 0.07 µM; IC50 [33]: 0.31 ± 0.087 µM; IC50 [40]: 1.1 ± 0.5 µM; IC50 [34]: 1.6 ± 0.21 µM
3 | CCOC(=O)c1c(N)sc(CCc2cc(OC)ccc2OC)c1C(=O)OCC [TR592, 2-Amino-5-[2-(2,5-dimethoxy-phenyl)-ethyl]-thiophene-3,4-dicarboxylic acid diethyl ester] | 42 ± 2.1 | 8.5 ± 0.85 | 25 ± 3.5 | 12 ± 2.1 | 43 ± 4.2 | 26 ± 3.5 | 39 ± 2.8 | 31 ± 4.2 | 31 ± 0.71 | 20 ± 1.4 | 25 | 30 ± 7.1 | 8.1 ± 1.2 | 17 ± 0.7 | 28 ± 3.5 | 24 ± 0.7 | 27 ± 19 | 41 ± 7.1 | 11 ± 3 | 24 ± 17 | IC50 [35]: 31 ± 19 µM; IC50 [36]: 23 ± 7 µM; IC50 [37]: 31 ± 22 µM; IC50 [38]: 25 ± 16 µM; IC50 [39]: 17 ± 8 µM; IC50 [22]: 4.1 ± 3.6 µM; IC50 [23]: 18 ± 2.1 µM; IC50 [24]: 17 ± 5.7 µM; IC50 [25]: 35 ± 6.4 µM; IC50 [26]: 34 ± 12 µM; IC50 [27]: 33 ± 9 µM; IC50 [28]: 34 ± 14 µM; IC50 [29, 42]: 20 ± 6 µM; IC50 [31]: 4.1 ± 0.4 µM; IC50 [32]: 20 ± 15 µM; IC50 [33]: 14 ± 8.3 µM; IC50 [40]: 17 µM; IC50 [34]: 36 ± 16 µM
